Source: PubChem BioAssay AID248 (DTP/NCI, 2004)
Toxic doses and inconclusive results are not listed. No stated cut-off is given here; in the data, active means T/C of 150% or more; inactive means T/C below 125%. Peptide text beside a SMILES is read from it. * marks the point of attachment. Cbz = O=C(OCc1ccccc1)*; OBn = c1ccc(CO*)cc1; Bn = c1ccc(C*)cc1

System: L1210 leukemia ip in BDF1 mice, survival T/C
Test: NCI In Vivo Anticancer Drug Screen. Data for tumor model L1210 Leukemia (intraperitoneal) in B6D2F1 (BDF1) mice
Conditions: endpoint: mean survival time, higher = longer survival
In short: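 Survival endpoint. Drug-treated group vs vehicle group, expressed as T divided by C. Tumor passaged by transplantation.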

[1] = dose: 100.0 mg/kg/injection, schedule: Q01DX009 (ip), vehicle: Klucel (hydroxypropylcellulose) (HPC)
[2] = dose: 200.0 mg/kg/injection, schedule: Q01DX009 (ip), vehicle: Klucel (hydroxypropylcellulose) (HPC)
[3] = dose: 400.0 mg/kg/injection, schedule: Q01DX009 (ip), vehicle: Klucel (hydroxypropylcellulose) (HPC)
[4] = dose: 100.0 mg/kg/injection, schedule: Q04DX003 (ip), vehicle: Klucel (hydroxypropylcellulose) (HPC)
[5] = dose: 200.0 mg/kg/injection, schedule: Q04DX003 (ip), vehicle: Klucel (hydroxypropylcellulose) (HPC)
[6] = dose: 400.0 mg/kg/injection, schedule: Q04DX003 (ip), vehicle: Klucel (hydroxypropylcellulose) (HPC)
[7] = dose: 100.0 mg/kg/injection, schedule: Q01DX001 (ip), vehicle: Klucel (hydroxypropylcellulose) (HPC)
[8] = dose: 200.0 mg/kg/injection, schedule: Q01DX001 (ip), vehicle: Klucel (hydroxypropylcellulose) (HPC)
[9] = dose: 400.0 mg/kg/injection, schedule: Q01DX001 (ip), vehicle: Klucel (hydroxypropylcellulose) (HPC)
[10] = dose: 100.0 mg/kg/injection, schedule: Q01DX001 (ip), vehicle: other
[11] = dose: 200.0 mg/kg/injection, schedule: Q01DX001 (ip), vehicle: other
[12] = dose: 400.0 mg/kg/injection, schedule: Q01DX001 (ip), vehicle: other
[13] = dose: 100.0 mg/kg/injection, schedule: Q04DX003 (ip), vehicle: saline with Tween-80
[14] = dose: 200.0 mg/kg/injection, schedule: Q04DX003 (ip), vehicle: saline with Tween-80
[15] = dose: 100.0 mg/kg/injection, schedule: Q04DX002 (ip), vehicle: Klucel (hydroxypropylcellulose) (HPC)
[16] = dose: 200.0 mg/kg/injection, schedule: Q04DX002 (ip), vehicle: Klucel (hydroxypropylcellulose) (HPC)
[17] = dose: 400.0 mg/kg/injection, schedule: Q04DX002 (ip), vehicle: Klucel (hydroxypropylcellulose) (HPC)
[18] = dose: 100.0 mg/kg/injection, schedule: Q01DX001 (ip), vehicle: saline
[19] = dose: 200.0 mg/kg/injection, schedule: Q01DX001 (ip), vehicle: saline
[20] = dose: 100.0 mg/kg/injection, schedule: Q01DX001 (ip), vehicle: carboxymethylcellulose (CMC)

Measured: T/C

O=C(N/N=C\c1ccc(Cl)cc1)C(O)C(O)C(O)C(O)CO (centres undefined)
inactive: [1] 100 % of control | [2] 91 % of control | [3] 89 % of control

CCCCNC(=O)Nc1cccc(C)c1C
inactive: [1] 101 % of control | [4] 95 % of control | [2] 94 % of control | [5] 93 % of control | [3] 93 % of control | [6] 97 % of control

O=C1OCC(CN2CC3CCC(CC3)C2)=C1c1ccccc1
inactive: [7] 94 % of control | [8] 102 % of control | [9] 94 % of control

O=c1onc(-c2ccccc2)c2ccccc12
inactive: dose: 12.5 mg/kg/injection, schedule: Q04DX002 (ip), vehicle: saline with Tween-80 106 % of control | dose: 25.0 mg/kg/injection, schedule: Q04DX002 (ip), vehicle: saline with Tween-80 106 % of control | dose: 50.0 mg/kg/injection, schedule: Q04DX002 (ip), vehicle: saline with Tween-80 103 % of control

CCCCCCCCCCCCCCCCOC(=O)Cl
inactive: [10] 98 % of control | [11] 90 % of control | [12] 106 % of control

C=C1C(=O)C2(C)OC2(C)C1C(=O)O (centres undefined)
inactive: dose: 1.25 mg/kg/injection, schedule: Q01DX009 (ip), vehicle: Klucel (hydroxypropylcellulose) (HPC) 94 % of control | dose: 2.5 mg/kg/injection, schedule: Q01DX009 (ip), vehicle: Klucel (hydroxypropylcellulose) (HPC) 100 % of control | dose: 5.0 mg/kg/injection, schedule: Q01DX009 (ip), vehicle: Klucel (hydroxypropylcellulose) (HPC) 105 % of control | dose: 10.0 mg/kg/injection, schedule: Q01DX009 (ip), vehicle: Klucel (hydroxypropylcellulose) (HPC) 101 % of control

NC(=O)CN1C(=O)C2C3C=CC(C3)C2C1=O (centres undefined)
inactive: [13] 97 % of control | [14] 109 % of control | dose: 400.0 mg/kg/injection, schedule: Q04DX003 (ip), vehicle: saline with Tween-80 97 % of control

CN(Cc1ccccc1)C(=O)Nc1ccccc1
inactive: [15] 98 % of control | [16] 103 % of control | [17] 95 % of control

c1ccc(C(N2CCCCC2)N2CCCCC2)cc1
inactive: [4] 106 % of control | [5] 103 % of control

COC1=C(c2ccccc2)P(=O)(Cc2ccccc2)C(C)C1 (centres undefined)
inactive: [15] 108 % of control | [16] 96 % of control | [17] 93 % of control

CCOCC(O)CO (centres undefined)
inactive: [18] 110 % of control | [19] 98 % of control | dose: 400.0 mg/kg/injection, schedule: Q01DX001 (ip), vehicle: saline 96 % of control

CC(C)/C=N/N=C(N)N
inactive: dose: 120.0 mg/kg/injection, schedule: Q01DX Z (oral), vehicle: saline 113 % of control | dose: 240.0 mg/kg/injection, schedule: Q01DX Z (oral), vehicle: saline 104 % of control

CCc1nc(Cl)c(Cl)[nH]1
inactive: dose: 100.0 mg/kg/injection, schedule: Q01DX001 (ip), vehicle: saline with Tween-80 107 % of control | dose: 200.0 mg/kg/injection, schedule: Q01DX001 (ip), vehicle: saline with Tween-80 103 % of control

CNCCc1cc2c(cc1C=O)OCO2
inactive: dose: 75.0 mg/kg/injection, schedule: Q01DX001 (ip), vehicle: saline 96 % of control | dose: 150.0 mg/kg/injection, schedule: Q01DX001 (ip), vehicle: saline 106 % of control

O=C(CCN1CC2CCC(CC2)C1)c1csc2ccccc12
inactive: dose: 88.8 mg/kg/injection, schedule: Q01DX001 (ip), vehicle: carboxymethylcellulose (CMC) 93 % of control | [20] 91 % of control | dose: 133.4 mg/kg/injection, schedule: Q01DX001 (ip), vehicle: carboxymethylcellulose (CMC) 98 % of control | dose: 200.0 mg/kg/injection, schedule: Q01DX001 (ip), vehicle: carboxymethylcellulose (CMC) 97 % of control | dose: 300.0 mg/kg/injection, schedule: Q01DX001 (ip), vehicle: carboxymethylcellulose (CMC) 95 % of control | dose: 400.0 mg/kg/injection, schedule: Q01DX001 (ip), vehicle: carboxymethylcellulose (CMC) 107 % of control

CC1(CC(=O)NN)OCCO1
inactive: [7] 104 % of control | [8] 102 % of control | [9] 107 % of control

N#CCCCC(=O)c1ccccc1
inactive: dose: 25.0 mg/kg/injection, schedule: Q01DX009 (ip), vehicle: saline with Tween-80 96 % of control | dose: 50.0 mg/kg/injection, schedule: Q01DX009 (ip), vehicle: saline with Tween-80 102 % of control | dose: 100.0 mg/kg/injection, schedule: Q01DX009 (ip), vehicle: saline with Tween-80 92 % of control

Cc1ccc(-c2nc3ncncc3[nH]2)cc1[N+](=O)[O-]
inactive: dose: 32.5 mg/kg/injection, schedule: Q01DX001 (ip), vehicle: Klucel (hydroxypropylcellulose) (HPC) 100 % of control | dose: 65.0 mg/kg/injection, schedule: Q01DX001 (ip), vehicle: Klucel (hydroxypropylcellulose) (HPC) 102 % of control | dose: 130.0 mg/kg/injection, schedule: Q01DX001 (ip), vehicle: Klucel (hydroxypropylcellulose) (HPC) 97 % of control

CC1CN1N (centres undefined)
inactive: dose: 25.0 mg/kg/injection, schedule: Q01DX009 (ip), vehicle: saline 101 % of control | dose: 50.0 mg/kg/injection, schedule: Q01DX009 (ip), vehicle: saline 101 % of control | dose: 50.0 mg/kg/injection, schedule: Q04DX003 (ip), vehicle: saline 109 % of control | [18] 105 % of control | dose: 100.0 mg/kg/injection, schedule: Q01DX009 (ip), vehicle: saline 98 % of control | dose: 100.0 mg/kg/injection, schedule: Q04DX003 (ip), vehicle: saline 103 % of control | [19] 105 % of control

O=C1c2cccc3c([N+](=O)[O-])ccc(c23)C(=O)N1CC1CCCO1 (centres undefined)
inactive: [1] 108 % of control | [2] 110 % of control

O=C(/C=C/c1ccccc1)CCN1CCC2CCC(C2)C1 (centres undefined)
inactive: dose: 50.0 mg/kg/injection, schedule: Q01DX001 (ip), vehicle: carboxymethylcellulose (CMC) 103 % of control | [20] 97 % of control

COc1ccccc1C(=O)C=C(C(F)(F)F)C(F)(F)F
inactive: [13] 95 % of control | [14] 97 % of control

NC(=O)Nc1cccc(C(=O)O)c1C(=O)O
inactive: [10] 101 % of control | dose: 100.0 mg/kg/injection, schedule: Q04DX003 (ip), vehicle: other 102 % of control | [11] 101 % of control | dose: 200.0 mg/kg/injection, schedule: Q04DX003 (ip), vehicle: other 98 % of control | [12] 107 % of control | dose: 400.0 mg/kg/injection, schedule: Q04DX003 (ip), vehicle: other 98 % of control

CC(C)C(NC(=O)C(CSCc1ccccc1)NC(=O)OCc1ccccc1)C(=O)OCc1ccccc1 (centres undefined) (Cbz-Cys(Bn)-Val-OBn; configuration not given here)
inactive: [4] 98 % of control | [5] 93 % of control | [6] 96 % of control
